One data set can be described thus: Kinetic solubility. Particulars: for solubility kinetic at 2 h: phosphate buffered saline, PBS pH 7.4, 2% DMSO, 2 h room temperature, assay range 5-200 µM, read-out: KS (kinetic solubility). In kind it is physicochemical. On the procedure: Using a stock solution of test compound in 100% DMSO, duplicate dilutions were prepared at a nominal concentration of 200 µM in 0.1 M phosphate buffered saline (PBS) at pH 7.4, with a 2% final DMSO content. Test compound calibration standards were prepared at 200 µM and 10 µM in 100%
DMSO. The PBS and DMSO dilutions were equilibrated on a shaking platform at room temperature for two hours prior to filtration using a Multiscreen HTS solubility filter plate (Millipore). Filtrates were analysed by LC-UV-MS and the concentration of compound in PBS filtrate determined by comparing the UV absorbance peak with that of the two DMSO calibration standards. Mass spectrometry will be used to confirm the presence of the expected molecular ion in the UV peak measured. The effective range of the assay is 5 – 200 µM. […]

Data set [1] can be described thus: Δlog kW IAM polarity descriptor. The data set is classed as physicochemical. Particulars: polarity in aqueous medium. The procedure: (§1) Polarity is quantified by two descriptors: EPSA and Δlog kw ^IAM. The first is measured in an almost fully nonpolar environment, and the second describes polarity in an aqueous medium. […] This is also in line with the higher solubility of KIMCs over 1.

The next data set in a line: in vitro. The settings on record: dog, MDCK, pH 7.4.
The next data set can be described thus: EPSA polarity descriptor. In kind it is physicochemical. The settings on record: almost fully nonpolar environment; polarity in nonpolar environment. The procedure:
as §1

Data set [2] can be described thus: Caco-2 membrane permeability assay. Particulars: human. The data set is classed as in vitro ADME. On the procedure: (§2) Lucifer Yellow (LY) was added to the apical buffer in all wells to assess viability of the cell layer. As LY cannot freely permeate lipophilic barriers, a high degree of LY transport indicates poor integrity of the cell layer and wells with a LY Papp > 10 x 10-6 cm/s were rejected. Compound recovery from the wells was determined from MS responses (normalised to internal standard) in donor and acceptor chambers at the end of incubation compared to response in the donor chamber pre- […]
(§3) which may reduce the reliability of a result.
(§4) Caco-2 membrane permeability assay
(§5) Caco-2 cells (ECACC) were cultured in DMEM, 10% FBS, 1% NEAA, Hepes buffer 10 mM and in 50 U/mL penicillin and […] streptomycin. For transport studies, 200,000 cells/well were seeded on Millicell 24-well cell culture plates. After 24 hours of incubation at 37 °C and 5% CO2, the medium was changed with Enterocyte Differentiation Medium (Becton Dickinson), which allows Caco-2 cells to establish within three days a differentiated enterocyte monolayer. The permeability of the compounds across the cells’ monolayer was determined by measuring their transport in both directions: apical to basolateral (A → B) and basolateral to apical (B → A). For A → B directional transport, the donor working solution with test article 10 m M) was added to the apical (A) compartment and HBSS (pH 7.4) was added to the basolateral (B). For B → A directional transport, the donor working solution (with test article 10 m M) was added to the basolateral (B) compartment and HBSS (pH 7.4) was added to the apical (A). Samples were collected at T0 and after 2h incubation (5% CO2, 95% relative humidity, 37 °C) for LC-MS/MS analyses. The Papp expressed as nm/sec was calculated as follows: Papp (nm/sec) = (Vr/C0) x (1/A) x (Cr(t)/T) x 1000 000. Where
Vr is the volume of the solution in the receiving compartment (mL); C0 is initial test compound concentration in the donor compartment (expressed as area ratio); A is the membrane surface area (cm2); Cr (t) = measured concentration of the receiver well at time T120 (expressed as area ratio) and T is time of incubation (sec). Efflux ratio was also measured to understand if the compounds undergo active efflux: Efflux ratio = Papp [B > A] / Papp [A > B]. The rank order of apparent permeability of the test compound was compared with that of known reference compounds tested in the same experiment, including Sulpiride and Metoprolol (as marker for low and high permeability, respectively and Talinolol (as known P-gp substrate). […]

A short description of data set [3]: BRlogD chromatographic lipophilicity. Particulars: XBridge Shield RP18, pH 7.0, 60% acetonitrile. In kind it is physicochemical.
Procedure: The original method was described in a previous paper.e Briefly, a HPLC Thermo Fisher Scientific Dionex Ultimate 3000 instrument equipped with a Low-Pressure Mixing Gradient Pump LPG-3400 SD, ACC-3000 autosampler with termostatable column compartment, a DAD-3000 RS Detector and Chromeleon Data System Version 7.2.10 was used. Deionized water and HPLC grade acetonitrile were used throughout. The mobile phases consisted of 20 mM ammonium acetate at pH 7.0 and acetonitrile 60% v/v. Samples were dissolved in a 1:1 mixture of buffer/acetonitrile in the concentration range of 50–100 ug/mL. A 10uL volume of each solution was injected at 30°C and flow rate was 1 mL/min. The dead time, t0, was determined by monitoring the baseline disturbance.
retention time (tR) was measured on a XBridgeTM Shield RP18 (Waters, 5cm x 4.6 mm, 5 µm particle size, 130Å pore size). Isocratic log k’ (capacity factor k’ = (tR - t0)/t0) values were measured. The relationship between log D and log k’60 has been determined previously and is reported below (Eq.
We termed this log D as BRlogD.
Data set [4] has as its system MDCK-WT wild-type cells.
Another data set has as its target T1, Pgp (Homo sapiens, UniProt P08183).
T1 construct: host or cells: Caco-2 cells
Nature of the data set: Pgp substrate assessment from Caco-2 permeability with/without Pgp inhibitor. The data set is classed as in vitro ADME. The procedure:
as §2, §3, §4
as §5, with “For B → A directional transport, the donor working solution (with test article 10 m M) was added to the basolateral (B) compartment and HBSS (pH 7.4) was added to the apical (A). Samples were collected at T0 and after 2h incubation (5% CO2, 95% relative humidity, 37 °C) for LC-MS/MS analyses.” left out, “Where” left out
Vr is the volume of the solution in the receiving compartment (mL); C0 is initial test compound concentration in the donor compartment (expressed as area ratio); A is the membrane surface area (cm2); Cr (t) = measured concentration of the receiver well at time T120 (expressed as area ratio) and T is time of incubation (sec). Efflux ratio was also measured to understand if the compounds undergo active efflux: Efflux ratio = Papp [B > A] / Papp [A > B]. […]
A general note: Passage across Caco-2 layers is used to estimate intestinal permeability.

The subject of data set [5] is MDCK-WT wild-type cells. Kind of data set: MDCK-WT permeability assay.
Data set [6] in a line: MDCK-WT permeability assay. Particulars: dog, MDCK, pH 7.4.
[7] abbreviates: Caco-2, pH 7.4, Caco-2 Papp AB with Pgp inhibitor.
Where [8] appears, read: Caco-2, pH 7.4, Caco-2 Papp AB without Pgp inhibitor.
Where [9] appears, read: Caco-2, pH 7.4, Caco-2 Papp BA with Pgp inhibitor.
Setting [10] is: Caco-2, pH 7.4, Caco-2 Papp BA without Pgp inhibitor.
[11] abbreviates: Caco-2, pH 7.4, A to B, without Pgp inhibitor, pH 7.4, 2 h, read-out: Caco-2 Papp AB without Pgp inhibitor.
[12] abbreviates: Caco-2, pH 7.4, B to A, without Pgp inhibitor, pH 7.4, 2 h, read-out: Caco-2 Papp BA without Pgp inhibitor (converted).
The mark [13] stands for this setting: Caco-2, pH 7.4, with Pgp inhibitor (name and concentration not stated), A to B, with Pgp inhibitor, pH 7.4, 2 h, read-out: Caco-2 Papp AB with Pgp inhibitor.
The mark [14] stands for this setting: Caco-2, pH 7.4, with Pgp inhibitor (name and concentration not stated), B to A, with Pgp inhibitor, pH 7.4, 2 h, read-out: Caco-2 Papp BA with Pgp inhibitor (converted).

Structures are written as SMILES. In brackets after ≈: the same amount, converted by molar mass. Where two headings read alike, the source gives them in different places.

The kinetic solubility is solubility judged after dilution from a stock solution rather than from solid.

T1 sequence (P08183 whole entry): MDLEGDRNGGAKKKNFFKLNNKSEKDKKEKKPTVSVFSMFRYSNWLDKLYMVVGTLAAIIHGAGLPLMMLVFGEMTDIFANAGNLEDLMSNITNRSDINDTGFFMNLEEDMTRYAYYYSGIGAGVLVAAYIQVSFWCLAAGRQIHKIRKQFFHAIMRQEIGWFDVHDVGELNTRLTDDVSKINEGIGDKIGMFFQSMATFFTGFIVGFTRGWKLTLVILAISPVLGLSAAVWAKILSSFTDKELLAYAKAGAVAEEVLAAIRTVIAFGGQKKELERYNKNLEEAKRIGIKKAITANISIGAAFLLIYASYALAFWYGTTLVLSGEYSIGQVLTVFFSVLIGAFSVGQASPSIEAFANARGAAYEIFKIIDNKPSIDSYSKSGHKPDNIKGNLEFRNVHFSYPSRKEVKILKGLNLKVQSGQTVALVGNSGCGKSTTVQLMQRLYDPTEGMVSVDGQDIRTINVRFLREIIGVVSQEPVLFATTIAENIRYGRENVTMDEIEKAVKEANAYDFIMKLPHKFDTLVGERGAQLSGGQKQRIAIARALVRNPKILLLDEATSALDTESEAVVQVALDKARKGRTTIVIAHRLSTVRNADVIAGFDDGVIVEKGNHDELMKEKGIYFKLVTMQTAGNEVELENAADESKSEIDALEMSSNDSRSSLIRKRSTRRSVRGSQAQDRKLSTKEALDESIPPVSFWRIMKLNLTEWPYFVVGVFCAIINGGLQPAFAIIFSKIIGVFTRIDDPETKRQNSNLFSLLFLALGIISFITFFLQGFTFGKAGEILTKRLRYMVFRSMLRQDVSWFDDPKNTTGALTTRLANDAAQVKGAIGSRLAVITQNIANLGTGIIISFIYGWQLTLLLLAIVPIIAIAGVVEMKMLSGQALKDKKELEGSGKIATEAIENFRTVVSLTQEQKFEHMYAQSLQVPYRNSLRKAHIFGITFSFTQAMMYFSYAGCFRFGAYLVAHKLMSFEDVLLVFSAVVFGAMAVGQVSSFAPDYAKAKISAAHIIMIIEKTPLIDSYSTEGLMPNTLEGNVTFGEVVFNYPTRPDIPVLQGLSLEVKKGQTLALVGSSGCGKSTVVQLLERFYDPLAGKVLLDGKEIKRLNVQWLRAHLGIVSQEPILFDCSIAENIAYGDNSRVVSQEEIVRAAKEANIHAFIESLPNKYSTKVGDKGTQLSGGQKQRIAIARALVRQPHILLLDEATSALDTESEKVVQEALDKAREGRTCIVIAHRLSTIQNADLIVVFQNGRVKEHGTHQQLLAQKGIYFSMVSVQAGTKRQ

As to `Cn1cc2c3nc(ncc31)Nc1cnn(c1)CCCNCCOc1ccc-2cc1` [Compound 5a], in “Kinetic solubility”, the “kinetic solubility (in words)” value is listed as “less soluble”. In addition, the kinetic solubility at 2 h in “Kinetic solubility” stood at 20 ± 3 µM (≈ 7.79 µg/mL). For the same compound, in [1], the “Δlog kW^IAM” value was determined as 2.77. In “in vitro”, this compound displayed a Papp A→B at 1 h, 10 µM of 18.4 ± 0.6 ×10⁻⁶ cm/s. For the same compound, the EPSA in the data set “EPSA polarity descriptor” came to 125 A^2. The figures for the Papp A→B at 2 h, 10 µM in [2] (setting [7]) and in data set [2] (setting [8]) were 19.9 ± 2.7 ×10⁻⁶ cm/s and 10.2 ± 1.5 ×10⁻⁶ cm/s, respectively. The Papp B→A at 2 h, 10 µM in [2] (setting [9]) is 13.5 ×10⁻⁶ cm/s; in data set [2] (setting [10]), 24.2 ×10⁻⁶ cm/s. Also, the BRlogD in data set [3] is 0.64. Besides, the “permeability in the MDCK model (in words)” value (“permeability” for short) in the data set with MDCK-WT wild-type cells [4] was “highly permeable”.

In the case of `Cn1cc2c3nc(ncc31)Nc1cnn(c1)CCCNC(=O)COc1ccc-2cc1` [Compound 5b], the Pgp substrate result on Pgp (Caco-2 model) was “YES”. Besides, in “Kinetic solubility”, the “kinetic solubility (in words)” value is given as “less soluble”. Moreover, the kinetic solubility at 2 h in “Kinetic solubility” is 16 ± 1 µM (≈ 6.46 µg/mL). Also, the “Δlog kW^IAM” value in data set [1] came out at 2.41. Moreover, the “permeability” value in the data set on MDCK-WT wild-type cells [5] was “highly permeable”. The compound also returned a Papp A→B at 1 h, 10 µM in data set [6] of 21 ± 0.8 ×10⁻⁶ cm/s. The compound also showed an EPSA in “EPSA polarity descriptor” of 106 A^2. Also, the Papp A→B at 2 h, 10 µM in data set [2] (setting [11]) was 3 ± 0.6 ×10⁻⁶ cm/s; in data set [2] (setting [13]) it was 22.8 ± 2.8 ×10⁻⁶ cm/s. For the same compound, the Papp B→A at 2 h, 10 µM was 21.5 ×10⁻⁶ cm/s in data set [2] (setting [12]) and 15.9 ×10⁻⁶ cm/s in data set [2] (setting [14]). The BRlogD in data set [3] worked out at 0.53.

In the case of `c1cc2nc(n1)Nc1cnn(c1)CCCNCCOc1ccc(cc1)N2` [Compound 6a], the Pgp substrate result at Pgp (Caco-2) was “YES”. Also, in the data set “Kinetic solubility”, the “kinetic solubility (in words)” value is recorded as “highly soluble”. The solubility (kinetic) at 2 h in the data set “Kinetic solubility” is 188 ± 18 µM (≈ 66.1 µg/mL). For the same compound, the “Δlog kW^IAM” value in [1] was determined as 3.26. In the data set “in vitro”, the Papp A→B at 1 h, 10 µM is 5.8 ± 1.1 ×10⁻⁶ cm/s. Besides, in “EPSA polarity descriptor”, the EPSA was 127 A^2. Moreover, the Papp A→B at 2 h, 10 µM in data set [2] (setting [7]) came out at 8.7 ± 1.9 ×10⁻⁶ cm/s; in data set [2] (setting [8]) it was 1.9 ± 0.5 ×10⁻⁶ cm/s. Also, the Papp B→A at 2 h, 10 µM was 7 ×10⁻⁶ cm/s in data set [2] (setting [9]) and 22 ×10⁻⁶ cm/s in data set [2] (setting [10]). Besides, the BRlogD in data set [3] is listed as -0.29. The “permeability” value with MDCK-WT wild-type cells [4] is given as “moderately permeable”.

In the case of `O=C1COc2ccc(cc2)Nc2ccnc(n2)Nc2cnn(c2)CCCN1` [Compound 6b], the Pgp substrate entry at Pgp (Caco-2 model) is listed as “YES”. Also, the “kinetic solubility (in words)” value in the data set “Kinetic solubility” is “highly soluble”. For the same compound, the solubility (kinetic) at 2 h in “Kinetic solubility” was 198 ± 3 µM (≈ 72.3 µg/mL). The “Δlog kW^IAM” value in [1] worked out at 2.58. In addition, the “permeability” value in the data set with MDCK-WT wild-type cells [5] is “moderately permeable”. This compound displayed a Papp A→B at 1 h, 10 µM in data set [6] of 4.8 ± 1 ×10⁻⁶ cm/s. Also, in “EPSA polarity descriptor”, the EPSA amounted to 108 A^2. Besides, the Papp A→B at 2 h, 10 µM worked out at 0.6 ± 0.1 ×10⁻⁶ cm/s in data set [2] (setting [11]) and 5.5 ± 0.2 ×10⁻⁶ cm/s in data set [2] (setting [13]). Also, the Papp B→A at 2 h, 10 µM in data set [2] (setting [12]) is 22.3 ×10⁻⁶ cm/s; in [2] (setting [14]) it was 20.3 ×10⁻⁶ cm/s. Further, the BRlogD in data set [3] was -0.03.

These data come from article PMC12067128, “Macrocyclization: Enhancing Drug-like Properties of Discoidin Domain Receptor Kinase Inhibitors” (ACS Medicinal Chemistry Letters, 2025).
